Results from ChEMBL document CHEMBL4219114, “Aralkyl selenoglycosides and related selenosugars in acetylated form activate protein phosphatase-1 and -2A” (Bioorg Med Chem, 2018).
Activity calls are given as the source filed them. The calls are words filed in the database; no cut-off is given here.

Species: Oryctolagus cuniculus
Test: Activation of rabbit skeletal muscle PP2A catalytic subunit at 19 to 395 uM using [32P]MLC20 as substrate pretreated for 10 mins followed by substrate addition measured after 10 mins by scintillation counting method relative to control

SMILES	Activity
CC(=O)OC[C@H]1O[C@@H]([Se]Cc2ccc([N+](=O)[O-])cc2)[C@H](OC(C)=O)[C@@H](OC(C)=O)[C@@H]1OC(C)=O	inactive
CC(=O)N[C@@H]1[C@@H](OC(C)=O)[C@H](OC(C)=O)[C@@H](COC(C)=O)O[C@H]1[Se]C(=O)c1ccc(C)cc1	Active
CC(=O)OC[C@H]1O[C@@H]([Se]C(=O)c2ccc(Cl)cc2)[C@H](OC(C)=O)[C@@H](OC(C)=O)[C@@H]1OC(C)=O	Active
CC(=O)OC[C@H]1O[C@@H]([Se]Cc2ccccc2)[C@H](OC(C)=O)[C@@H](OC(C)=O)[C@@H]1OC(C)=O	Active
CC(=O)OC[C@H]1O[C@@H]([Se]c2ccc([N+](=O)[O-])cc2[N+](=O)[O-])[C@H](OC(C)=O)[C@@H](OC(C)=O)[C@@H]1OC(C)=O	inactive
CC(=O)OC[C@H]1O[C@@H]([Se]c2ccc([N+](=O)[O-])cn2)[C@H](OC(C)=O)[C@@H](OC(C)=O)[C@@H]1OC(C)=O	inactive
CC(=O)OC[C@H]1O[C@@H]([Se]C(=O)c2ccc(C)cc2)[C@H](OC(C)=O)[C@@H](OC(C)=O)[C@@H]1OC(C)=O	Active
OC[C@H]1O[C@@H]([Se]Cc2ccccc2C(F)(F)F)[C@H](O)[C@@H](O)[C@@H]1O	inactive

Test system: not listed separately
Test: Inhibition of rabbit skeletal muscle PP2A catalytic subunit at 19 to 395 uM using [32P]MLC20 as substrate pretreated for 10 mins followed by substrate addition measured after 10 mins by scintillation counting method relative to control
Set-up: species or system Oryctolagus cuniculus

SMILES	inhibition (INH)
CC(=O)N[C@@H]1[C@@H](OC(C)=O)[C@H](OC(C)=O)[C@@H](COC(C)=O)O[C@H]1[Se]C(=O)c1ccc(C)cc1	Active
CC(=O)OC[C@H]1O[C@@H]([Se]C(=O)c2ccc(Cl)cc2)[C@H](OC(C)=O)[C@@H](OC(C)=O)[C@@H]1OC(C)=O	Active
CC(=O)OC[C@H]1O[C@@H]([Se]c2ccc([N+](=O)[O-])cc2[N+](=O)[O-])[C@H](OC(C)=O)[C@@H](OC(C)=O)[C@@H]1OC(C)=O	Active
CC(=O)OC[C@H]1O[C@@H]([Se]c2ccc([N+](=O)[O-])cn2)[C@H](OC(C)=O)[C@@H](OC(C)=O)[C@@H]1OC(C)=O	Active
CC(=O)OC[C@H]1O[C@@H]([Se]C(=O)c2ccc(C)cc2)[C@H](OC(C)=O)[C@@H](OC(C)=O)[C@@H]1OC(C)=O	Active

Test system: HeLa
Test: Cytotoxicity against human HeLa cells assessed as reduction in cell viability at >200 uM after 24 hrs by Alamar blue assay
Format: functional, cell-based

SMILES	Activity
CC(=O)OC[C@H]1O[C@@H]([Se]Cc2ccccc2)[C@H](OC(C)=O)[C@@H](OC(C)=O)[C@@H]1OC(C)=O	Active
OC[C@H]1O[C@@H]([Se]Cc2ccccc2C(F)(F)F)[C@H](O)[C@@H](O)[C@@H]1O	Active

Test system: HeLa
Test: Activation of PP1 catalytic subunit/PP2A catalytic subunit in human HeLa cells using [32P]MLC20 as substrate pretreated for 1 hr followed by substrate addition measured after 30 secs by scintillation counting method
Format: cell-based

SMILES	Activity
OC[C@H]1O[C@@H]([Se]Cc2ccccc2C(F)(F)F)[C@H](O)[C@@H](O)[C@@H]1O	inactive

Test system: not listed separately
Test: Inhibition of rabbit skeletal muscle PP1 catalytic subunit at 19 to 395 uM using [32P]MLC20 as substrate pretreated for 10 mins followed by substrate addition measured after 10 mins by scintillation counting method
Set-up: species or system Oryctolagus cuniculus

SMILES	inhibition (INH)
CC(=O)OC[C@H]1O[C@@H]([Se]Cc2ccc([N+](=O)[O-])cc2)[C@H](OC(C)=O)[C@@H](OC(C)=O)[C@@H]1OC(C)=O	Active
CC(=O)N[C@@H]1[C@@H](OC(C)=O)[C@H](OC(C)=O)[C@@H](COC(C)=O)O[C@H]1[Se]C(=O)c1ccc(C)cc1	Active
CC(=O)OC[C@H]1O[C@@H]([Se]C(=O)c2ccc(Cl)cc2)[C@H](OC(C)=O)[C@@H](OC(C)=O)[C@@H]1OC(C)=O	Active
CC(=O)OC[C@H]1O[C@@H]([Se]c2ccc([N+](=O)[O-])cc2[N+](=O)[O-])[C@H](OC(C)=O)[C@@H](OC(C)=O)[C@@H]1OC(C)=O	Active
CC(=O)OC[C@H]1O[C@@H]([Se]c2ccc([N+](=O)[O-])cn2)[C@H](OC(C)=O)[C@@H](OC(C)=O)[C@@H]1OC(C)=O	Active
CC(=O)OC[C@H]1O[C@@H]([Se]C(=O)c2ccc(C)cc2)[C@H](OC(C)=O)[C@@H](OC(C)=O)[C@@H]1OC(C)=O	Active

Species: Oryctolagus cuniculus
Test: Activation of rabbit skeletal muscle PP1 catalytic subunit at 19 to 395 uM using [32P]MLC20 as substrate pretreated for 10 mins followed by substrate addition measured after 10 mins by scintillation counting method relative to control

SMILES	Activity
CC(=O)OC[C@H]1O[C@@H]([Se]Cc2ccc([N+](=O)[O-])cc2)[C@H](OC(C)=O)[C@@H](OC(C)=O)[C@@H]1OC(C)=O	inactive
CC(=O)N[C@@H]1[C@@H](OC(C)=O)[C@H](OC(C)=O)[C@@H](COC(C)=O)O[C@H]1[Se]C(=O)c1ccc(C)cc1	Active
CC(=O)OC[C@H]1O[C@@H]([Se]C(=O)c2ccc(Cl)cc2)[C@H](OC(C)=O)[C@@H](OC(C)=O)[C@@H]1OC(C)=O	Active
CC(=O)OC[C@H]1O[C@@H]([Se]Cc2ccccc2)[C@H](OC(C)=O)[C@@H](OC(C)=O)[C@@H]1OC(C)=O	Active
CC(=O)OC[C@H]1O[C@@H]([Se]c2ccc([N+](=O)[O-])cc2[N+](=O)[O-])[C@H](OC(C)=O)[C@@H](OC(C)=O)[C@@H]1OC(C)=O	inactive
CC(=O)OC[C@H]1O[C@@H]([Se]c2ccc([N+](=O)[O-])cn2)[C@H](OC(C)=O)[C@@H](OC(C)=O)[C@@H]1OC(C)=O	inactive
CC(=O)OC[C@H]1O[C@@H]([Se]C(=O)c2ccc(C)cc2)[C@H](OC(C)=O)[C@@H](OC(C)=O)[C@@H]1OC(C)=O	Active
OC[C@H]1O[C@@H]([Se]Cc2ccccc2C(F)(F)F)[C@H](O)[C@@H](O)[C@@H]1O	inactive
